Data reported in patent publication US20260092039A1, “DUAL INHIBITORS FOR THE TREATMENT OF ALZHEIMER'S DISEASE” (UNIVERSITAT DE BARCELONA, priority 2023, published 2026).

Assays:
[1] = system: primary mouse cortical neurons; test: LDH toxicity assay in mouse primary cortical neurons; type: cell-based
Experimental: The compounds were diluted from 250 mM DMSO stocks to a 100 mM stock in DMSO. Thereafter, compounds were diluted to 100 μM, 20 μM, 5 μM, 1 μM, 0.2 μM, 0.05 μM, 0.01 μM and 0.001 μM dilution in medium, so that the final DMSO concentration in the well was 0.1% for all conditions. Stock solutions were stored at −20° C. until further use.
Isolation and treatment of primary mouse cortical neurons: Primary cortical neurons were prepared from timed pregnant wild-type C57BL/6JRccHsd mice at E16.5-E18. Animals were sacrificed by carbon dioxide and embryos were dissected in Calcium and Magnesium free Hanks Balanced Salt Solution (CMF-HBSS) containing 15 mM HEPES and 10 mM NaHCO3, pH 7.2. Embryos were decapitated, skin and skull gently removed and cortical hemispheres were separated. After removing meninges and brain stem, the cortex was isolated, chopped with a sterile razor blade in Chop solution (Hibernate-E without Calcium containing 2% B-27) and digested in 2 mg/mL papain (Worthington) dissolved in Hibernate-E without Calcium for 30 min at 30° C. Cortices were triturated for 10-15 times with a fire-polished silanized Pasteur pipette in Hibernate-E without Calcium containing 2% B-27, 0.01% DNaseI, 1 mg/mL BSA, and 1 mg/mL Ovomucoid Inhibitor. Undispersed pieces were allowed to settle by gravity for 1 min and the supernatant was centrifuged for 3 min at 228 g. The pellet was resuspended in Hibernate-E containing 2% B-27, 0.01% DNaseI, 1 mg/mL BSA, 1 mg/mL Ovomucoid Inhibitor and diluted with Hibernate-E containing 2% B-27. After the second centrifugation step (3 min at 228 g), the pellet was resuspended in nutrition medium without glutamate (Neurobasal, 2% B-27, 0.5 mM glutamine, 1% Penicillin-Streptomycin). Cells were counted in a hemacytometer and seeded in nutrition medium on poly-D-lysine pre-coated plates. Cells were cultured at 37° C.; 95% humidity and 5% CO2. All wells were handled the same way. On DIV8, cells were treated with the compounds for the evaluation of the neurotoxic effect. On DIV9, the MTT and LDH assays were performed as described below. The experiments were performed in six technical replicates for all groups per experiment.
LDH toxicity assay: Supernatants of cells were subjected to the lactate dehydrogenase (LDH) toxicity assay by using the Cytotoxicity Detection Kit (Roche Diagnostics, Cat. No: 11 644 793 001). Seventy μL of cell culture supernatant was transferred to clear 96-well plates. Seventy μL freshly prepared reaction mixture was added to each well and the mixture was incubated for 20 to 30 min at room temperature protected from light. Absorbance was measured at 492 nm and 620 nm as reference wavelength. Cell death was expressed as optical density (OD). Values were calculated as percent of control values (vehicle control).

[2] = Parallel artificial membrane permeation assay for blood-brain barrier (PAMPA-BBB); type: in vitro ADME, porcine; details: for Papp: pig, PBS:EtOH (70:30), read-out: Blood-brain barrier permeability Pe; for CNS prediction: predictive penetration in the CNS from Pe
Experimental: A parallel artificial membrane permeation assay for blood-brain barrier (PAMPA-BBB) was used to evaluate the brain penetration of compounds of formula I, following the method described by L. Di et al., “High throughput artificial membrane permeability assay for blood-brain barrier”, European Journal of Medicinal Chemistry 2003, vol. 38. pp. 223-232. The in vitro permeability (Pe) of the test compounds through a lipid extract of porcine brain membrane was determined. Assayed compounds were tested using a mixture of PBS:EtOH (70:30). Assay validation was made by comparing the experimental and reported permeability values of a set of fourteen commercial drugs and a lineal correlation between experimental and reported permeability values of the fourteen commercial drugs was obtained (y=1.678 x−1.447; R^2=0.9313). From this equation and taking into account the limits established by Di et al. for BBB permeation, the ranges of permeability were established, as follows. Compounds of high BBB permeation (CNS+): Pe (10^−6 cm s^−1)>5.26; compounds of low BBB permeation (CNS−): Pe (10^−6 cm s^−1)<1.91; and compounds of uncertain BBB permeation (CNS+/−): 5.26>Pe (10^−6 cm s^−1)>1.91. The permeability results are averages of three different experiments in triplicate and a predictive penetration in the CNS is also given (Table 5).

[3] = target: T1, recombinant human sEH (hsEH) (Homo sapiens, UniProt P34913); test: In vitro determination of sEH inhibitory activity (fluorescent PHOME assay)
T1 sequence (P34913 1-555): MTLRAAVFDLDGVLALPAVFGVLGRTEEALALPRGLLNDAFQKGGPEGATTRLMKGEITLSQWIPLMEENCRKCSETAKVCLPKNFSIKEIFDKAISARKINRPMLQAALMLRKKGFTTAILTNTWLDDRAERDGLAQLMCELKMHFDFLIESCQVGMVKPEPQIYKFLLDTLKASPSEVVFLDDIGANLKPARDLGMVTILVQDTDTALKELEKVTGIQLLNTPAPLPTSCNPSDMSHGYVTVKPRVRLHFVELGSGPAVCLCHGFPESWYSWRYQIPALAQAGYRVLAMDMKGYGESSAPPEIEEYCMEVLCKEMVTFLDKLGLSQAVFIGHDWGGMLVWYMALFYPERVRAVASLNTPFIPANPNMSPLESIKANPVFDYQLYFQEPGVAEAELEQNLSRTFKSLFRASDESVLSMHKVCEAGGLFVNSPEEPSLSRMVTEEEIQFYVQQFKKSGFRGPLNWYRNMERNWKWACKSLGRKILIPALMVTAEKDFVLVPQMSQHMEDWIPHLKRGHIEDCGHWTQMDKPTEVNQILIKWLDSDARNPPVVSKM
Experimental: Control compound (TPPU): N-[1-(1-Oxopropyl)-4-piperidinyl]-N′-[4-(trifluoromethoxy)phenyl]urea.
Five μL of DMSO were added to background and positive control wells, and then 5 μL of inhibitor solution were added in the inhibitor wells. Five μL of the solution of hsEH were added to the positive control and inhibitor wells and the mixture was stirred. A 1/21 dilution of the solution of PHOME with assay buffer was prepared according to the final volume required, and then 105 μL of each well were added. The plate was carefully shaken for 10 seconds and was incubated for 5 minutes at room temperature. […] The intensity of fluorescence was used to analyze and calculate the IC50 values. Results were obtained by regression analysis from at least three data points in a linear region of the curve. IC50 values are average of minimum three independent replicates.

Row | Structure (SMILES) | LDH toxicity assay (cell death), primary cortical neurons ([1]; compound 0.001 μM) | LDH toxicity assay (cell death), primary cortical neurons ([1]; compound 0.01 μM) | LDH toxicity assay (cell death), primary cortical neurons ([1]; compound 0.05 μM) | LDH toxicity assay (cell death), primary cortical neurons ([1]; compound 0.2 μM) | LDH toxicity assay (cell death), primary cortical neurons ([1]; compound 1 μM) | LDH toxicity assay (cell death), primary cortical neurons ([1]; compound 5 μM) | LDH toxicity assay (cell death), primary cortical neurons ([1]; compound 20 μM) | LDH toxicity assay (cell death), primary cortical neurons ([1]; compound 100 μM) | Papp [2] [×10⁻⁶ cm/s] | CNS prediction [2] | IC50 [3] [nM]
1 | CCC12CC3CC(C1)CC(NC(=O)NCCCn1cncc1C)(C3)C2 [Id, 1-(3-ethyladamantan-1-yl)-3-[3-(5-methyl-1H-imidazol-1-yl)propyl]urea] | 114 % of vehicle control | 104 % of vehicle control | 100 % of vehicle control | 100 % of vehicle control | 99 % of vehicle control | 102 % of vehicle control | 109 % of vehicle control | 157 % of vehicle control | > 30 | CNS+ (Compounds of high BBB permeation (CNS+): Pe (10^−6 cm s^−1)>5.26) | 3.3
2 | Cc1cncn1CCCNC(=O)NC1C2CC3CC(C2)CC1C3 (centres unmarked) [Ii, 1-(adamantan-2-yl)-3-[3-(5-methyl-1H-imidazol-1-yl)propyl]urea] | 99 % of vehicle control | 97 % of vehicle control | 97 % of vehicle control | 94 % of vehicle control | 101 % of vehicle control | 100 % of vehicle control | 97 % of vehicle control | 113 % of vehicle control | > 30 | CNS+ (Compounds of high BBB permeation (CNS+): Pe (10^−6 cm s^−1)>5.26) | 4.3
3 | Cc1cncn1CCCNC(=O)NC12CC3CC(CC(C)(C3)O1)C2 [Ir, 1-[3-(5-methyl-1H-imidazol-1-yl)propyl]-3-(3-methyl-2-oxaadamantan-1-yl)urea] | 100 % of vehicle control | 100 % of vehicle control | 101 % of vehicle control | 101 % of vehicle control | 100 % of vehicle control | 100 % of vehicle control | 101 % of vehicle control | 107 % of vehicle control | 6.9 | CNS+ (Compounds of high BBB permeation (CNS+): Pe (10^−6 cm s^−1)>5.26) | 860
4 | CCC12CC3CC(C1)CC(NC(=O)NCCCn1cncc1C)(C3)O2 [Is, 1-(3-ethyl-2-oxaadamantan-1-yl)-3-[3-(5-methyl-1H-imidazol-1-yl)propyl]urea] | 96 % of vehicle control | 97 % of vehicle control | 99 % of vehicle control | 98 % of vehicle control | 107 % of vehicle control | 102 % of vehicle control | 113 % of vehicle control | 107 % of vehicle control | > 30 | CNS+ (Compounds of high BBB permeation (CNS+): Pe (10^−6 cm s^−1)>5.26) | 2800
